# Data as given in patent US10105357B2, “Indication of antibiotic drugs for preparation of cancer inhibition pharmaceutical composition” (LAUNX BIOMEDICAL CO., LTD., priority 2014, dated 2018).
# Counter-ions that a name gives are not always drawn. Like-named read-outs stand apart in the source and are kept apart here.
# Columns and labels:
# cancer cell lines = assay: Cell viability analysis (WST-1) on cancer cell lines; type: cell-based, human; conditions: drug 10 μM, 72 hours, WST-1; Table 3
# [1] = tested on: HI650 (Lung Adenocarcinoma); assay: Cell viability analysis, lung cancer HI650; type: cell-based, human; conditions: Homo sapiens, NCI-H1650, 72 h
# [2] = tested on: A549 (Lung Adenocarcinoma); assay: Cell viability analysis, lung cancer A549; type: cell-based, human; conditions: Homo sapiens, A549, 72 h
# [3] = tested on: AGS (Gastric Adenocarcinoma); assay: Cell viability analysis, gastric cancer AGS; type: cell-based, human; conditions: Homo sapiens, 72 h
# [4] = tested on: MKN-45 (Gastric Adenocarcinoma); assay: Cell viability analysis, gastric cancer MKN-45; type: cell-based, human; conditions: Homo sapiens, MKN-45, 72 h
# [5] = tested on: HepG2 (Hepatocellular Carcinoma); assay: Cell viability analysis, hepatic cancer HepG2; type: cell-based, human; conditions: Homo sapiens, HepG2, 72 h
# [6] = tested on: LoVo (Colorectal Adenocarcinoma); assay: Cell viability analysis, colon cancer LoVo; type: cell-based, human; conditions: Homo sapiens, LoVo, 72 h
# [7] = tested on: A375 (Amelanotic Melanoma); assay: Cell viability analysis, skin cancer A375; type: cell-based, human; conditions: Homo sapiens, A-375, 72 h
# [8] = tested on: HeLa (Cervix Adenocarcinoma); assay: Cell viability analysis, cervical cancer HeLa; type: cell-based, human; conditions: Homo sapiens, HeLa, 72 h
# [9] = tested on: PC3 (p53−) (Prostate Adenocarcinoma); assay: Cell viability analysis, prostate cancer PC3; type: cell-based, human; conditions: Homo sapiens, 72 h
# [10] = tested on: TSGH-8301 (Urinary Bladder Carcinoma); assay: Cell viability analysis, bladder cancer TSGH-8301; type: cell-based, human; conditions: Homo sapiens, 72 h
# [11] = tested on: MCF7 (Mammary Gland, Adenocarcinoma); assay: Cell viability analysis, breast cancer MCF7; type: cell-based, human; conditions: Homo sapiens, MCF7, 72 h
# [12] = tested on: HL-60 (Acute Promyelocytic Leukemia); assay: Cell viability analysis, leukemia HL-60; type: cell-based, human; conditions: Homo sapiens, HL-60, 72 h
# [13] = tested on: HCT116 (p53+) (Colorectal Carcinoma); assay: cells; conditions: Homo sapiens, HCT-116, 72 h, read-out: cell viability (survival rate), HCT116
# [14] = drug 10 μM, 72 hours, WST-1, OD450 nm, read-out: cell viability (survival rate), H1650
# [15] = drug 10 μM, 72 hours, WST-1, OD450 nm, read-out: cell viability (survival rate), A549
# [16] = drug 10 μM, 72 hours, WST-1, OD450 nm, read-out: cell viability (survival rate), AGS
# [17] = drug 10 μM, 72 hours, WST-1, OD450 nm, read-out: cell viability (survival rate), MKN-45
# [18] = drug 10 μM, 72 hours, WST-1, OD450 nm, read-out: cell viability (survival rate), HepG2
# [19] = read-out: cell viability (survival rate), LoVo, drug 10 μM, 72 hours, WST-1, OD450 nm
# [20] = drug 10 μM, 72 hours, WST-1, OD450 nm, read-out: cell viability (survival rate), A375
# [21] = drug 10 μM, 72 hours, WST-1, OD450 nm, read-out: cell viability (survival rate), HeLa
# [22] = drug 10 μM, 72 hours, WST-1, OD450 nm, read-out: cell viability (survival rate), PC3
# [23] = drug 10 μM, 72 hours, WST-1, OD450 nm, read-out: cell viability (survival rate), TSGH
# [24] = drug 10 μM, 72 hours, WST-1, OD450 nm, read-out: cell viability (survival rate), MCF7
# [25] = drug 10 μM, 72 hours, WST-1, OD450 nm, read-out: cell viability (survival rate), HL-60
SMILES,inhibition effect on different cancer cell lines (cancer cell lines),"viability at 10 µM [1, 14] [%]","viability at 10 µM [2, 15] [%]","viability at 10 µM [3, 16] [%]","viability at 10 µM [4, 17] [%]","viability at 10 µM [5, 18] [%]","viability at 10 µM [6, 19] [%]","viability at 10 µM [7, 20] [%]","viability at 10 µM [8, 21] [%]","viability at 10 µM [9, 22] [%]","viability at 10 µM [10, 23] [%]","viability at 10 µM [11, 24] [%]","viability at 10 µM [12, 25] [%]",viability at 10 µM [13] [%],also measured
NC[C@H]1O[C@H](O[C@H]2[C@H](O)[C@@H](O[C@H]3O[C@H](CO)[C@@H](O)[C@H](N)[C@H]3O)[C@H](N)C[C@@H]2N)[C@H](N)[C@@H](O)[C@@H]1O [Bekanamycin],significant inhibition effect,80.8,58.3,81.7,74.5,85.3,96.9,55.5,95.2,76.3,76.2,57.5,96.8,73.6,–
CC(C)(O/N=C(\C(=O)N[C@@H]1C(=O)N2C(C(=O)[O-])=C(C[n+]3ccccc3)CS[C@H]12)c1csc(N)n1)C(=O)O [Ceftazidime Pentahydrate],significant inhibition effect,58.5,26.7,53.5,94.6,93.6,72.5,87.7,70,38.5,78.7,35.5,89.3,89.5,–
CCn1nc(C(=O)O)c(=O)c2cc3c(cc21)OCO3 [Cinoxacin],significant inhibition effect,–,–,–,–,–,97,–,–,–,–,–,–,66.2,"viability at 10 µM ([1]; read-out: cell viability (survival rate), H1650, drug 10 μM, 72 hours, WST-1, OD450 nm): 67.1%; viability at 10 µM ([2]; read-out: cell viability (survival rate), A549, drug 10 μM, 72 hours, WST-1, OD450 nm): 74.2%; viability at 10 µM ([3]; read-out: cell viability (survival rate), AGS, drug 10 μM, 72 hours, WST-1, OD450 nm): 83.2%; viability at 10 µM ([4]; read-out: cell viability (survival rate), MKN-45, drug 10 μM, 72 hours, WST-1, OD450 nm): 98.9%; viability at 10 µM ([5]; read-out: cell viability (survival rate), HepG2, drug 10 μM, 72 hours, WST-1, OD450 nm): 69.7%; viability at 10 µM ([7]; read-out: cell viability (survival rate), A375, drug 10 μM, 72 hours, WST-1, OD450 nm): 68.3%; viability at 10 µM ([8]; read-out: cell viability (survival rate), HeLa, drug 10 μM, 72 hours, WST-1, OD450 nm): 64%; viability at 10 µM ([9]; read-out: cell viability (survival rate), PC3, drug 10 μM, 72 hours, WST-1, OD450 nm): 87%; viability at 10 µM ([10]; read-out: cell viability (survival rate), TSGH, drug 10 μM, 72 hours, WST-1, OD450 nm): 71.5%; viability at 10 µM ([11]; read-out: cell viability (survival rate), MCF7, drug 10 μM, 72 hours, WST-1, OD450 nm): 74.9%; viability at 10 µM ([12]; read-out: cell viability (survival rate), HL-60, drug 10 μM, 72 hours, WST-1, OD450 nm): 109%"
CN1CCN(c2cc3c(cc2F)c(=O)c(C(=O)O)cn3-c2ccc(F)cc2)CC1 [Difloxacin HCl],significant inhibition effect,77.5,64.5,82.9,79.4,71.2,95.7,58.5,130,77.3,52,52.3,77,96.7,–
"Cl.NCCc1ccc(O)c(O)c1 [Dopamine hydrochloride (Inotropin), Dopamine hydrochloride]",significant inhibition effect,–,–,–,–,–,–,–,–,–,–,–,–,90.6,"viability at 10 µM ([1]; read-out: cell viability (survival rate), H1650): 76%; viability at 10 µM ([2]; read-out: cell viability (survival rate), A549): 102%; viability at 10 µM ([3]; read-out: cell viability (survival rate), AGS): 74.3%; viability at 10 µM ([4]; read-out: cell viability (survival rate), MKN-45): 85%; viability at 10 µM ([6]; read-out: cell viability (survival rate), LoVo): 84.3%; viability at 10 µM ([7]; read-out: cell viability (survival rate), A375): 83%; viability at 10 µM ([8]; read-out: cell viability (survival rate), HeLa): 85.1%; viability at 10 µM ([9]; read-out: cell viability (survival rate), PC3): 115%; viability at 10 µM ([10]; read-out: cell viability (survival rate), TSGH): 57.7%; viability at 10 µM ([11]; read-out: cell viability (survival rate), MCF7): 148%; viability at 10 µM ([12]; read-out: cell viability (survival rate), HL-60): 91.5%"
